Test results as given in ChEMBL document CHEMBL1143806, “Synthesis and biological evaluation of the suberoylanilide hydroxamic acid (SAHA) beta-glucuronide and beta-galactoside for application in selective prodrug chemotherapy” (Bioorg Med Chem Lett, 2007).
Activity calls are given as the source filed them. The calls are words filed in the database; no cut-off is given here.

Columns and labels:
NCI-H661 = assay: Antiproliferative activity against human H661 cells at 1 to 25 uM after 48 hrs; assay type: functional, cell-based
[1] = Stability in presence of 100 U/mL Escherichia coli beta-glucuronidase assessed as SAHA production after 7 mins; assay type: ADME
[2] = Stability in presence of 100 U/mL Escherichia coli beta-glucuronidase assessed as SAHA production after 30 mins; assay type: ADME; conditions: 0.5 h
[3] = Stability in presence of 200 to 1000 U/mL bovine liver beta-glucuronisase assessed as SAHA production at 100 ug/mL; assay type: ADME; conditions: cattle

Row | Stability [1] | Stability [2] | Stability [3] | SMILES | Activity (NCI-H661)
1 | – | – | – | O=C(CCCCCCC(=O)Nc1ccccc1)NO[C@@H]1O[C@H](CO)[C@H](O)[C@H](O)[C@H]1O | inactive
2 | Stable | Stable | Stable | O=C(CCCCCCC(=O)Nc1ccccc1)NO[C@@H]1O[C@H](C(=O)O)[C@@H](O)[C@H](O)[C@H]1O | inactive
